Results: patent US8741897B2, “Glucocorticoid mimetics, methods of making them, pharmaceutical compositions and uses thereof” (Boehringer Ingelheim Pharmaceuticals Inc., priority 2003, dated 2014)

These molecules were tested on glucocorticoid receptor function (assay: one or more of the above assays (GR binding and glucocorticoid receptor cell assays: aromatase, IL-6, TAT, MMTV-Luc, IL-8, ICAM-Luc)). Details: assay not specified per compound.
Format: cell-based

SMILES | activity as agonists of the glucocorticoid receptor function in one or more of the above assays
CC(C)(CC(O)(Cc1cc2nc(-c3ccccc3)ncc2[nH]1)C(F)(F)F)c1ccccc1 (stereo not shown) [1,1,1-Trifluoro-4-methyl-4-phenyl-2-(2-phenyl-5H-pyrrolo[3,2-d]pyrimidin-6-ylmethyl)pentan-2-ol] | potent agonists
COc1ccc(F)cc1C(C)(C)CC(O)(Cc1cc2cc(N3CCOCC3)ncc2[nH]1)C(F)(F)F (stereo not shown) [1,1,1-Trifluoro-4-(5-fluoro-2-methoxyphenyl)-4-methyl-2-(5-morpholin-4-yl-1H-pyrrolo[2,3-c]pyridin-2-ylmethyl)pentan-2-ol] | potent agonists
CC(C)(CC(O)(Cc1cc2cc(-c3ccccc3)nnc2[nH]1)C(F)(F)F)c1cccc(F)c1 (stereo not shown) [1,1,1-Trifluoro-4-(3-fluorophenyl)-4-methyl-2-(3-phenyl-7H-pyrrolo[2,3-c]pyridazin-6-ylmethyl)pentan-2-ol] | potent agonists
COc1ccc(-c2cccc3ccccc23)cc1C(C)(C)CC(O)(Cc1cc2cc(N3CCOCC3)ncc2[nH]1)C(F)(F)F (stereo not shown) [1,1,1-Trifluoro-4-(2-methoxy-5-naphthalen-1-ylphenyl)-4-methyl-2-(5-morpholin-4-yl-1H-pyrrolo[2,3-c]pyridin-2-ylmethyl)pentan-2-ol] | potent agonists
CC(C)(CC(O)(Cc1cc2ccc(C#N)cc2[nH]1)C(F)(F)F)c1cc(S(C)(=O)=O)cc2c1OCC2 (stereo not shown) [2-[2-Hydroxy-4-(5-methanesulfonyl-2,3-dihydrobenzofuran-7-yl)-4-methyl-2-trifluoromethylpentyl]-1H-indole-6-carbonitrile] | potent agonists
COc1ccc(-c2ccsc2)cc1C(C)(C)CC(O)(Cc1cc2c(C)nccc2[nH]1)C(F)(F)F (stereo not shown) [1,1,1-Trifluoro-4-(2-methoxy-5-thiophen-3-ylphenyl)-4-methyl-2-(4-methyl-1H-pyrrolo[3,2-c]pyridin-2-ylmethyl)pentan-2-ol] | potent agonists
CCc1cccc2[nH]c(CC(O)(CC(C)(C)c3cc(F)ccc3OC)C(F)(F)F)cc12 (stereo not shown) [2-(4-Ethyl-1H-indol-2-ylmethyl)-1,1,1-trifluoro-4-(5-fluoro-2-methoxyphenyl)-4-methylpentan-2-ol] | potent agonists
COc1ccc(-c2cncnc2)cc1C(C)(C)CC(O)(Cc1cc2ccncc2[nH]1)C(F)(F)F (stereo not shown) [1,1,1-Trifluoro-4-(2-methoxy-5-pyrimidin-5-ylphenyl)-4-methyl-2-(1H-pyrrolo[2,3-c]pyridin-2-ylmethyl)pentan-2-ol] | potent agonists
CSc1cc2c(c(C(C)(C)CC(O)(Cc3cc4cc(Cl)ncc4[nH]3)C(F)(F)F)c1)OCC2 (stereo not shown) [2-(5-Chloro-1H-pyrrolo[2,3-c]pyridin-2-ylmethyl)-1,1,1-trifluoro-4-methyl-4-(5-methylsulfanyl-2,3-dihydrobenzofuran-7-yl)pentan-2-ol] | potent agonists
CC(C)(CC(O)(Cc1cc2cc(-c3ccccc3)nnc2[nH]1)C(F)(F)F)c1cc(Cl)cc2c1OCC2 (stereo not shown) [4-(5-Chloro-2,3-dihydrobenzofuran-7-yl)-1,1,1-trifluoro-4-methyl-2-(3-phenyl-7H-pyrrolo[2,3-c]pyridazin-6-ylmethyl)pentan-2-ol] | potent agonists
Cc1ccc(F)cc1C(C)(C)CC(O)(Cc1cc2ccncc2[nH]1)C(C)C (stereo not shown) [5-(5-Fluoro-2-methylphenyl)-2,5-dimethyl-3-(1H-pyrrolo[2,3-c]pyridin-2-ylmethyl)hexan-3-ol] | agonists
COc1ccc(C)cc1C(C)(C)CC(O)(Cc1cc2nc(N3CCCC3)ncc2[nH]1)C(F)(F)F (stereo not shown) | potent agonists
Cc1cncc2[nH]c(CC(O)(CC(C)(C)c3cccc(F)c3)C(F)(F)F)cc12 (stereo not shown) [1,1,1-Trifluoro-4-(3-fluorophenyl)-4-methyl-2-(4-methyl-1H-pyrrolo[2,3-c]pyridin-2-ylmethyl)pentan-2-ol] | potent agonists
COc1nccc2[nH]c(CC(O)(CC(C)(C)c3cc(F)ccc3C)C(F)(F)F)cc12 (stereo not shown) [1,1,1-Trifluoro-4-(5-fluoro-2-methylphenyl)-2-(4-methoxy-1H-pyrrolo[3,2-c]pyridin-2-ylmethyl)-4-methylpentan-2-ol] | potent agonists
COc1ccc(-c2ccccc2)cc1C(C)(C)CC(O)(Cc1cc2cc(N3CCCCC3)ncc2[nH]1)C(F)(F)F (stereo not shown) [1,1,1-Trifluoro-4-(4-methoxybiphenyl-3-yl)-4-methyl-2-(5-piperidin-1-yl-1H-pyrrolo[2,3-c]pyridin-2-ylmethyl)pentan-2-ol] | potent agonists
COc1ccc(-c2ccsc2)cc1C(C)(C)CC(O)(Cc1cc2cc(OC(C)C)ncc2[nH]1)C(F)(F)F (stereo not shown) [1,1,1-Trifluoro-2-(5-isopropoxy-1H-pyrrolo[2,3-c]pyridin-2-ylmethyl)-4-(2-methoxy-5-thiophen-3-ylphenyl)-4-methylpentan-2-ol] | potent agonists
CC(C)C(=O)c1ccc2[nH]c(CC(O)(CC(C)(C)c3cc(Cl)cc4c3OCC4)C(F)(F)F)cc2n1 (stereo not shown) [1-{2-[4-(5-Chloro-2,3-dihydrobenzofuran-7-yl)-2-hydroxy-4-methyl-2-trifluoromethylpentyl]-1H-pyrrolo[3,2-b]pyridin-5-yl}-2-methylpropan-1-one] | potent agonists
COc1ccc(-c2ccsc2)cc1C(C)(C)CC(O)(Cc1cc2cc(Cl)ncc2[nH]1)C(F)(F)F (stereo not shown) [2-(5-Chloro-1H-pyrrolo[2,3-c]pyridin-2-ylmethyl)-1,1,1-trifluoro-4-(2-methoxy-5-thiophen-3-ylphenyl)-4-methylpentan-2-ol] | potent agonists
CC(C)(CC(O)(Cc1cc2cc(N3CCOCC3)ncc2[nH]1)C(F)(F)F)c1ccc(F)cc1 (stereo not shown) [1,1,1-Trifluoro-4-(4-fluorophenyl)-4-methyl-2-(5-morpholin-4-yl-1H-pyrrolo[2,3-c]pyridin-2-ylmethyl)pentan-2-ol] | potent agonists
COc1ccc(F)cc1C(C)(C)CC(O)(Cc1cc2nc(-c3ccccc3)ncc2[nH]1)C(F)(F)F (stereo not shown) [1,1,1-Trifluoro-4-(5-fluoro-2-methoxyphenyl)-4-methyl-2-(2-phenyl-5H-pyrrolo[3,2-d]pyrimidin-6-ylmethyl)pentan-2-ol] | potent agonists
CC(C)C(O)(Cc1cc2ccncc2[nH]1)CC(C)(C)c1cc(Cl)cc2c1OCC2 (stereo not shown) [5-(5-Chloro-2,3-dihydrobenzofuran-7-yl)-2,5-dimethyl-3-(1H-pyrrolo[2,3-c]pyridin-2-ylmethyl)hexan-3-ol] | agonists
CC(C)(CC(O)(Cc1cc2cc(-c3cncnc3)ccc2[nH]1)C(F)(F)F)c1cc(F)cc2c1OCC2 (stereo not shown) [1,1,1-Trifluoro4-(5-fluoro-2,3-dihydrobenzofuran-7-yl)-4-methyl-2-(5-pyrimidin-5-yl-1H-indol-2-ylmethyl)pentan-2-ol] | potent agonists
